Measurements reported in patent US9527885B2, “Hepatitis C virus inhibitors” (BRISTOL-MYERS SQUIBB COMPANY, priority 2011, dated 2016).
Read-outs that look alike come from different tables or passages of the source.

How the values were obtained:
[1] = system: HCV genotype 1a (H77 strain) replicon in HUH-7 cells; test: HCV replicon luciferase reporter assay, genotype 1a; type: cell-based; details: Hepatitis C virus, Huh-7, 72 h, 3 days incubation, read-out: LE_1a (EC50, range)
Text: (§1) An HCV replicon whole cell system was established as described by Lohmann V, Korner F, Koch J, Herian U, Theilmann L, Bartenschlager R., Science 285(5424):110-3 (1999) and modified to introduce a luciferase reporter, as first described by Krieger et al (Krieger N, Lohmann V, and Bartenschlager R, J. Virol. 75(10):4614-4624 (2001)). CDNA encoding a humanized form of the Renilla luciferase gene and a linker sequence fused directly to the 3′-end of the luciferase gene were introduced into the replicon construct using an Asc1 restriction site located in core, directly upstream of the neomycin marker gene. The adaptive mutation at position 1179 (serine to isoleucine) was also introduced (Blight K J, Kolykhalov, A A, Rice, C M, Science 290(5498):1972-1974). A stable cell line constitutively expressing this HCV replicon construct was generated by first linearizing plasmid DNAs with ScaI. RNA transcripts were synthesized in vitro using the T7 MegaScript transcription kit (Ambion, Austin, Tex.) according to manufacturer's directions. In vitro transcripts of the cDNA were transfected into the human hepatoma cell line, HUH-7. […] Resulting cell lines were characterized for positive and negative strand RNA production and protein production over time.
A stable HCV replicon luciferase reporter cell line representing the genotype 1a H77 strain (Yanagi M, Purcell R H, Emerson S U, et al. Transcripts from a single full-length cDNA clone of hepatitis C virus are infectious when directly transfected into the liver of a chimpanzee. Proc Natl Acad Sci USA 1997; 94(16):8738-8743) was generated as described previously for the genotype 1b (Con1) replicon luciferase cell line. The replicon construct was modified by introducing mutations were introduced into the genes encoding the NS3 helicase domain (proline replaced by leucine at position 1496) and NS5A (serine to isoleucine at position 2204) to improve replication in cell culture.
(§2) HCV replicon luciferase assays were developed to monitor the inhibitory effects of compounds described in the disclosure on HCV genotypes 1a and 1b viral replication. HUH-7 cells, constitutively expressing the HCV replicon, were grown in Dulbecco's Modified Eagle Media (DMEM) (Gibco-BRL) containing 10% Fetal calf serum (FCS) (Sigma) and 1 mg/mL G418 (Gibco-BRL). Compounds were serially diluted 3 folds in DMSO for a twenty-point titration and subsequently transferred to sterile 384-well tissue-culture treated plates (Corning cat #3571). The plates were then seeded with 50 μL of cells at a density of 3.0×10^3 cells/well in DMEM containing 4% FCS (final DMSO concentration at 0.5%). After 3 days incubation at 37° C., cells were analyzed for Renilla Luciferase activity using the EnduRen as substrate (Promega cat #E6485). The EnduRen substrate was diluted in DMEM and then added to the plates to a final concentration of 7.5 μM. The plates were incubated for 2 hrs at 37° C. and then read immediately for 30 seconds with Viewlux Imager (PerkinElmer) using a luminescence program. To assess cytotoxicity of compounds, CC50 values were generated by multiplexing the EnduRen-containing plates with Cell Titer-Blue (Promega, cat # G8082). Cell-Titer Blue (3 μL) was added to each well and incubated for 8 hrs at 37° C. The fluorescence signal from each well was read, with an excitation wavelength at 525/10 nm and an emission wavelength of 598/10 nm, using the Viewlux Imager.
(§3) The EC50 values for compounds were calculated by using a four-parameter logistic equation: y=A+((B−A)/(1+((C/x)^D))), where A and B denotes minimal and maximal % inhibition, respectively, C is the EC50, D is the hill slope and x represents compound concentration.

[2] = system: HCV genotype 1b (Con1) replicon in HUH-7 cells; test: HCV replicon luciferase reporter assay, genotype 1b; type: cell-based; details: Hepatitis C virus, 72 h, 3 days incubation, read-out: LE_1b (EC50, range)
Text: as §1, with “time. […]” for “time.”
as §2, §3

[3] = HCV genotype 1a replicon luciferase, range class
[4] = HCV genotype 1b replicon luciferase, range class
[5] = HCV genotype 1a replicon luciferase, class symbols
[6] = HCV genotype 1b replicon luciferase, class symbols

| Structure (SMILES) | EC50 [1, 5] | EC50 [2, 6] | other results |
| --- | --- | --- | --- |
| COc1ccc2c(O[C@@H]3C[C@H]4C(=O)N[C@]5(C(=O)NS(=O)(=O)C6(CF)CC6)C[C@H]5/C=C\CC[C@@H](C)C[C@@H](C)[C@H](NC(=O)OC(C)(C)C(C)(F)F)C(=O)N4C3)nc(N(C)C)cc2c1 [Compound 3125, 3,3-difluoro-2-methylbutan-2-yl ((2R,6S,7R,9R,13aS,14aR,16aS,Z)-2-((3-(dimethylamino)-6-methoxyisoquinolin-1-yl)oxy)-14a-(((1-(fluoromethyl)cyclopropyl)sulfonyl)carbamoyl)-7,9-dimethyl-5,16-dioxo-1,2,3,5,6,7,8,9,10,11,13a,14,14a,15,16,16a-hexadecahydrocyclopropa[e]pyrrolo[1,2-a][1,4]diazacyclopentadecin-6-yl)carbamate] |  |  | EC50 ([1]; HCV genotype 1a replicon luciferase reporter, range class): 4.82 to 103 nM; EC50 ([2]; HCV genotype 1b replicon luciferase reporter, range class): < 5.46 nM |
| C[C@@H]1CC/C=C\[C@@H]2C[C@@]2(C(=O)NS(=O)(=O)C2CC2)NC(=O)[C@@H]2C[C@@H](Oc3nccc4c5c(ccc34)OC(F)(F)O5)CN2C(=O)[C@@H](NC(=O)O[C@@H]2C[C@@H]3C[C@@H]3C2)[C@H](C)C1 [Compound 5274, (1R,3r,5S)-bicyclo[3.1.0]hexan-3-yl ((2R,6S,7R,9R,13aS,14aR,16aS,Z)-14a-((cyclopropylsulfonyl)carbamoyl)-2-((2,2-difluoro-[1,3]dioxolo[4,5-f]isoquinolin-6-yl)oxy)-7,9-dimethyl-5,16-dioxo-1,2,3,5,6,7,8,9,10,11,13a,14,14a,15,16,16a-hexadecahydrocyclopropa[e]pyrrolo[1,2-a][1,4]diazacyclopentadecin-6-yl)carbamate] |  |  | EC50 [1, 3]: < 5.46 nM; EC50 [2, 4]: < 5.46 nM |
| CC[C@@H]1C[C@H](C)CC/C=C\[C@@H]2C[C@@]2(C(=O)NS(=O)(=O)C2(C)CC2)NC(=O)[C@@H]2C[C@@H](Oc3ncc(OC)c4ccccc34)CN2C(=O)[C@H]1NC(=O)OC(C)(C)C(F)(F)F [Compound 4174, 1,1,1-trifluoro-2-methylpropan-2-yl (2R,6S,7R,9R,13aS,14aR,16aS,Z)-7-ethyl-2-(4-methoxyisoquinolin-1-yloxy)-9-methyl-14a-(1-methylcyclopropylsulfonylcarbamoyl)-5,16-dioxo-1,2,3,5,6,7,8,9,10,11,13a,14,14a,15,16,16a-hexadecahydrocyclopropa[e]pyrrolo[1,2-a][1,4]diazacyclopentadecin-6-ylcarbamate] | < 5.46 nM | < 5.46 nM |  |
| CC[C@@H]1C[C@H](C)CC/C=C\[C@@H]2C[C@@]2(C(=O)NS(=O)(=O)C2(C)CC2)NC(=O)[C@@H]2C[C@@H](Oc3nccc4cc(OC)c(F)cc34)CN2C(=O)[C@H]1NC(=O)OC(C)(C)C(F)(F)F [Compound 4176, 1,1,1-trifluoro-2-methylpropan-2-yl (2R,6S,7R,9R,13aS,14aR,16aS,Z)-7-ethyl-2-(7-fluoro-6-methoxyisoquinolin-1-yloxy)-9-methyl-14a-(1-methylcyclopropylsulfonylcarbamoyl)-5,16-dioxo-1,2,3,5,6,7,8,9,10,11,13a,14,14a,15,16,16a-hexadecahydrocyclopropa[e]pyrrolo[1,2-a][1,4]diazacyclopentadecin-6-ylcarbamate] | < 5.46 nM | < 5.46 nM |  |
| COc1ccc(-c2nc(O[C@@H]3C[C@H]4C(=O)N[C@]5(C(=O)NS(=O)(=O)C6CC6)C[C@@H]5/C=C\CC[C@@H](C)C[C@@H](C)[C@H](NC(=O)OC(C)(C)C)C(=O)N4C3)c3ccc(OC)cc3n2)cc1 [Compound 5002, tert-butyl ((2R,6S,7R,9R,13aR,14aR,16aS,Z)-14a-((cyclopropylsulfonyl)carbamoyl)-2-((7-methoxy-2-(4-methoxyphenyl)quinazolin-4-yl)oxy)-7,9-dimethyl-5,16-dioxo-1,2,3,5,6,7,8,9,10,11,13a,14,14a,15,16,16a-hexadecahydrocyclopropa[e]pyrrolo[1,2-a][1,4]diazacyclopentadecin-6-yl)carbamate] | < 5.46 nM | < 5.46 nM |  |
| CCOc1ccc2c(O[C@@H]3C[C@H]4C(=O)N[C@]5(C(=O)NS(=O)(=O)C6(C)CC6)C[C@H]5/C=C\CC[C@H](C)C[C@@H](C)[C@H](NC(=O)OC(C)(C)C(F)(F)F)C(=O)N4C3)nccc2c1 [Compound 5135, 1,1,1-trifluoro-2-methylpropan-2-yl ((2R,6S,7R,9S,13aS,14aR,16aS,Z)-2-((6-ethoxyisoquinolin-1-yl)oxy)-7,9-dimethyl-14a-(((1-methylcyclopropyl)sulfonyl)carbamoyl)-5,16-dioxo-1,2,3,5,6,7,8,9,10,11,13a,14,14a,15,16,16a-hexadecahydrocyclopropa[e]pyrrolo[1,2-a][1,4]diazacyclopentadecin-6-yl)carbamate] | 4.82 to 103 nM | < 5.46 nM |  |
| CCOc1cnc(O[C@@H]2C[C@H]3C(=O)N[C@]4(C(=O)NS(=O)(=O)C5(C)CC5)C[C@H]4/C=C\CC[C@@H](C)C[C@@H](C)[C@H](NC(=O)OC(C)(C)C(C)(F)F)C(=O)N3C2)c2ccccc12 [Compound 5113, 3,3-difluoro-2-methylbutan-2-yl ((2R,6S,7R,9R,13 aS,14aR,16aS,Z)-2-((4-ethoxyisoquinolin-1-yl)oxy)-7,9-dimethyl-14a-(((1-methylcyclopropyl)sulfonyl)carbamoyl)-5,16-dioxo-1,2,3,5,6,7,8,9,10,11,13a,14,14a,15,16,16a-hexadecahydrocyclopropa[e]pyrrolo[1,2-a][1,4]diazacyclopentadecin-6-yl)carbamate] | < 5.46 nM | < 5.46 nM |  |
| COc1ccc2c(O[C@@H]3C[C@H]4C(=O)N[C@]5(C(=O)NS(=O)(=O)C6CC6)C[C@H]5/C=C\CC[C@@H](C)C[C@@H](C)[C@H](NC(=O)O[C@@H]5C[C@@H]6C[C@@H]6C5)C(=O)N4C3)nc(-c3ccc(N4CCOCC4)cc3)cc2c1 [Compound 5195, (1R,3r,5S)-bicyclo[3.1.0]hexan-3-yl ((2R,6S,7R,9R,13aS,14aR,16aS,Z)-14a-((cyclopropylsulfonyl)carbamoyl)-2-((6-methoxy-3-(4-morpholinophenyl)isoquinolin-1-yl)oxy)-7,9-dimethyl-5,16-dioxo-1,2,3,5,6,7,8,9,10,11,13a,14,14a,15,16,16a-hexadecahydrocyclopropa[e]pyrrolo[1,2-a][1,4]diazacyclopentadecin-6-yl)carbamate] |  |  | EC50 [1, 3]: < 5.46 nM; EC50 [2, 4]: < 5.46 nM |
